Measurements as given in patent US20050075375A1 (priority 2003, published 2005).
pEC50: −log10 of the molar value. Like-named read-outs stand apart in the source and are kept apart here.

Tested on: monocistronic NK5.1 HCV replicon in Huh7 cells
Assay: HCV replicon assay, monocistronic replicon cell line
Format: cell-based, hepatitis C virus
Details: Hepatitis C virus, Huh-7, 72 h, read-out: Mono EC50 Median
Outline: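 EC50 derives from the HCV RNA/GAPDH RNA ratio by one-step TaqMan RT-PCR, relative to DMSO-only wells. Compounds (six half-log concentrations, 0.6% DMSO) were incubated 3 days at 37 °C with NK5.1 monocistronic replicon Huh7 cells plated a day earlier.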

[1] = Table 1, monocistronic replicon in Huh7 cells, 3 days incubation, HCV RNA/GAPDH RNA by TaqMan RT-PCR

SMILES | pEC50 [1] | pEC50
COc1ccc(O)c(-c2cc(-c3ncccc3C)on2)c1 [Compound 132, 4-Methoxy-2-[5-(3-methyl-pyridin-2-yl)-isoxazol-3-yl]-phenol] | 5.70 | 
Oc1ccccc1-c1nc(-c2ccccn2)no1 [Compound 133, 2-(3-Pyridin-2-yl-[1,2,4]oxadiazol-5-yl)-phenol] | < 4.72 | 
Oc1ccc2ccccc2c1-c1nc(-c2ccccn2)no1 [Compound 134, 1-(3-Pyridin-2-yl-[1,2,4]oxadiazol-5-yl)-naphthalen-2-ol] | 4.77 | 
Oc1ccc2ccccc2c1-c1nc(-c2ccccc2)no1 [Compound 135, 1-(3-Phenyl-[1,2,4]oxadiazol-5-yl)-naphthalen-2-ol] | < 4.49 | 
Oc1ccc2ccccc2c1-c1nc(-c2cc(C(F)(F)F)ccc2F)no1 [Compound 136, 1-[3-(2-Fluoro-5-trifluoromethyl-phenyl)-[1,2,4]oxadiazol-5-yl]-naphthalen-2-ol] | < 4.49 | 
O=[N+]([O-])c1cccnc1-c1noc(-c2c(O)ccc3ccccc23)n1 [Compound 137, 1-[3-(3-Nitro-pyridin-2-yl)-[1,2,4]oxadiazol-5-yl]-naphthalen-2-ol] | 5.74 | 
COc1cccc(-c2nc(-c3ncccc3C(F)(F)F)no2)c1 [Compound 138, 2-[5-(3-Methoxy-phenyl)-[1,2,4]oxadiazol-3-yl]-3-trifluoromethyl-pyridine] | < 4.72 | 
COc1cccc(-c2nc(-c3ccccn3)no2)c1 [Compound 139, 2-[5-(3-Methoxy-phenyl)-[1,2,4]oxadiazol-3-yl]-pyridine] | 4.74 | 
c1ccc(-c2noc(-c3cccc4ccccc34)n2)nc1 [Compound 140, 2-(5-Naphthalen-1-yl-[1,2,4]oxadiazol-3-yl)-pyridine] | 5.15 | 
O=[N+]([O-])c1ccc(-c2nc(-c3ccccn3)no2)c(Cl)c1 [Compound 141, 2-[5-(2-Chloro-4-nitro-phenyl)-[1,2,4]oxadiazol-3-yl]-pyridine] | 5.00 | 
COc1ccc(OC)c(-c2nc(-c3ccccn3)no2)c1 [Compound 142, 2-[5-(2,5-Dimethoxy-phenyl)-[1,2,4]oxadiazol-3-yl]-pyridine] | 4.70 | 
COc1ccc2ccccc2c1-c1nc(-c2ccccn2)no1 [Compound 143, 2-[5-(2-Methoxy-naphthalen-1-yl)-[1,2,4]oxadiazol-3-yl]-pyridine] | 4.89 | 
Oc1ccc(Br)cc1-c1nc(-c2ccccn2)no1 [Compound 144, 4-Bromo-2-(3-pyridin-2-yl-[1,2,4]oxadiazol-5-yl)-phenol] | 5.43 | 
Oc1ccc(Cl)cc1-c1nc(-c2ccccn2)no1 [Compound 145, 4-Chloro-2-(3-pyridin-2-yl-[1,2,4]oxadiazol-5-yl)-phenol] | 5.64 | 
O=[N+]([O-])c1ccc(O)c(-c2nc(-c3ccccn3)no2)c1 [Compound 146, 4-Nitro-2-(3-pyridin-2-yl-[1,2,4]oxadiazol-5-yl)-phenol] | < 4.49 | 
COc1ccc(O)c(-c2nc(-c3ccccn3)no2)c1 [Compound 147, 4-Methoxy-2-(3-pyridin-2-yl-[1,2,4]oxadiazol-5-yl)-phenol] | 5.36 | 
O=[N+]([O-])c1cccc(-c2nc(-c3ccccn3)no2)c1 [Compound 148, 2-[5-(3-Nitro-phenyl)-[1,2,4]oxadiazol-3-yl]-pyridine] | < 4.72 | 
O=[N+]([O-])c1ccc(F)c(-c2nc(-c3ccccn3)no2)c1 [Compound 149] | 5.39 | 
Oc1ccc(O)c(-c2nc(-c3ccccn3)no2)c1 [Compound 150, 2-(3-Pyridin-2-yl-[1,2,4]oxadiazol-5-yl)-benzene-1,4-diol] | 4.80 | 
COc1cccc(-c2nc(-c3ccccn3)no2)c1O [Compound 151, 2-Methoxy-6-(3-pyridin-2-yl-[1,2,4]oxadiazol-5-yl)-phenol] | 4.74 | 
COc1ccc(-c2nc(-c3ccccn3)no2)c(O)c1 [Compound 152, 5-Methoxy-2-(3-pyridin-2-yl-[1,2,4]oxadiazol-5-yl)-phenol] | 5.25 | 
FC(F)(F)c1cccnc1-c1noc(-c2cccc3ccccc23)n1 [Compound 153, 2-(5-Naphthalen-1-yl-[1,2,4]oxadiazol-3-yl)-3-trifluoromethyl-pyridine] | 5.10 | 
O=[N+]([O-])c1cccnc1-c1noc(-c2cc(Cl)ccc2O)n1 [Compound 154, 4-Chloro-2-[3-(3-nitro-pyridin-2-yl)-[1,2,4]oxadiazol-5-yl]-phenol] | < 4.72 | 
O=[N+]([O-])c1cccnc1-c1noc(-c2cc(Br)ccc2O)n1 [Compound 155, 4-Bromo-2-[3-(3-nitro-pyridin-2-yl)-[1,2,4]oxadiazol-5-yl]-phenol] | < 4.72 | 
O=[N+]([O-])c1cccc(-c2nc(-c3ncccc3[N+](=O)[O-])no2)c1 [Compound 156, 3-Nitro-2-[5-(3-nitro-phenyl)-[1,2,4]oxadiazol-3-yl]-pyridine] |  | < 4.72

SMILES | pEC50 [1] | pEC50
O=[N+]([O-])c1cccnc1-c1noc(-c2cccc3ccccc23)n1 [Compound 157, 2-(5-Naphthalen-1-yl-[1,2,4]oxadiazol-3-yl)-3-nitro-pyridine] | 5.33 | 
O=[N+]([O-])c1ccc(O)c(-c2nc(-c3ncccc3[N+](=O)[O-])no2)c1 [Compound 158, 4-Nitro-2-[3-(3-nitro-pyridin-2-yl)-[1,2,4]oxadiazol-5-yl]-phenol] |  | 4.96
COc1ccc(OC)c(-c2nc(-c3ncccc3[N+](=O)[O-])no2)c1 [Compound 159] | 4.80 | 
COc1ccc(O)c(-c2nc(-c3ncccc3[N+](=O)[O-])no2)c1 [Compound 160, 4-Methoxy-2-[3-(3-nitro-pyridin-2-yl)-[1,2,4]oxadiazol-5-yl]-phenol] | < 4.72 | 
O=[N+]([O-])c1cccnc1-c1noc(-c2ccccc2O)n1 [Compound 161, 2-[3-(3-Nitro-pyridin-2-yl)-[1,2,4]oxadiazol-5-yl]-phenol] | < 4.72 | 
O=[N+]([O-])c1cccnc1-c1noc(-c2cc(F)ccc2O)n1 [Compound 162, 4-Fluoro-2-[3-(3-nitro-pyridin-2-yl)-[1,2,4]oxadiazol-5-yl]-phenol] | 4.77 | 
CN(C)c1ccc(-c2nc(-c3ccccn3)no2)c(O)c1 [Compound 163, 5-Dimethylamino-2-(3-pyridin-2-yl-[1,2,4]oxadiazol-5-yl)-phenol] | 5.82 | 
Oc1ccc(F)cc1-c1nc(-c2ccccn2)no1 [Compound 164, 4-Fluoro-2-(3-pyridin-2-yl-[1,2,4]oxadiazol-5-yl)-phenol] | 5.05 | 
COc1cccc(-c2nc(-c3ncccc3[N+](=O)[O-])no2)c1 [Compound 165, 2-[5-(3-Methoxy-phenyl)-[1,2,4]oxadiazol-3-yl]-3-nitro-pyridine] | 4.74 | 
COc1cccc(-c2nc(-c3ncccc3[N+](=O)[O-])no2)c1O [Compound 166, 2-Methoxy-6-[3-(3-nitro-pyridin-2-yl)-[1,2,4]oxadiazol-5-yl]-phenol] | < 4.72 | 
O=[N+]([O-])c1ccc(-c2nc(-c3ncccc3[N+](=O)[O-])no2)c(Cl)c1 [Compound 167, 2-[5-(2-Chloro-4-nitro-phenyl)-[1,2,4]oxadiazol-3-yl]-3-nitro-pyridine] |  | 4.92
O=[N+]([O-])c1ccc(F)c(-c2nc(-c3ncccc3[N+](=O)[O-])no2)c1 [Compound 168, 2-[5-(2-Fluoro-5-nitro-phenyl)-[1,2,4]oxadiazol-3-yl]-3-nitro-pyridine] |  | 5.34
COc1ccc2ccccc2c1-c1nc(-c2ncccc2[N+](=O)[O-])no1 [Compound 169] | < 4.72 | 
COc1ccc(-c2nc(-c3ncccc3[N+](=O)[O-])no2)c(O)c1 [Compound 170, 5-Methoxy-2-[3-(3-nitro-pyridin-2-yl)-[1,2,4]oxadiazol-5-yl]-phenol] | 4.92 | 
O=[N+]([O-])c1cccnc1-c1noc(-c2cc(O)ccc2O)n1 [Compound 171, 2-[3-(3-Nitro-pyridin-2-yl)-[1,2,4]oxadiazol-5-yl]-benzene-1,4-diol] | 5.27 | 
Cc1ccc(O)c(-c2nc(-c3ccccn3)no2)c1 [Compound 172, 4-Methyl-2-(3-pyridin-2-yl-[1,2,4]oxadiazol-5-yl)-phenol] | 5.22 | 
O=[N+]([O-])c1ccc(Cl)c(-c2nc(-c3ccccn3)no2)c1 [Compound 173, 2-[5-(2-Chloro-5-nitro-phenyl)-[1,2,4]oxadiazol-3-yl]-pyridine] | 5.42 | 
Cc1ccc(O)c(-c2nc(-c3ncccc3[N+](=O)[O-])no2)c1 [Compound 174, 4-Methyl-2-[3-(3-nitro-pyridin-2-yl)-[1,2,4]oxadiazol-5-yl]-phenol] | 5.00 | 
COc1ccc(-c2nc(-c3ncccc3C)no2)c(O)c1 [Compound 175, 5-Methoxy-2-[3-(3-methyl-pyridin-2-yl)-[1,2,4]oxadiazol-5-yl]-phenol] | 6.30 | 
COc1cccc(-c2nc(-c3ncccc3C)no2)c1 [Compound 176, 2-[5-(3-Methoxy-phenyl)-[1,2,4]oxadiazol-3-yl]-3-methyl-pyridine] | 4.89 | 
Cc1cccnc1-c1noc(-c2cccc3ccccc23)n1 [Compound 177, 3-Methyl-2-(5-naphthalen-1-yl-[1,2,4]oxadiazol-3-yl)-pyridine] | 5.14 | 
COc1ccc(OC)c(-c2nc(-c3ncccc3C)no2)c1 [Compound 178, 2-[5-(2,5-Dimethoxy-phenyl)-[1,2,4]oxadiazol-3-yl]-3-methyl-pyridine] | < 4.49 | 
Cc1cccnc1-c1noc(-c2cc(O)ccc2O)n1 [Compound 179, 2-[3-(3-Methyl-pyridin-2-yl)-[1,2,4]oxadiazol-5-yl]-benzene-1,4-diol] | 5.89 | 
Cc1cccnc1-c1noc(-c2ccc(N(C)C)cc2O)n1 [Compound 180] | 5.68 | 
Cc1cccnc1-c1noc(-c2cccc([N+](=O)[O-])c2)n1 [Compound 181] | < 4.49 | 
